Data taken from the supplement of paper PMC6045584.
± gives the standard deviation of the averaged measurements.

Tests used:
[1] = compound: CC(=O)NCC(=O)N1[C@@H]2CC[C@H]1c1ccc(Nc3ncc(C(F)(F)F)c(NC4CCC4)n3)cc12; assay: surviving fraction relative to DMSO-only wells; higher = less growth inhibition; settings: exposure time: 5 days
How it was run: (§1)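 A line counted only if its three screens reached replicate Pearson r >0.7 and median Z' >0.3. Tumour cells in log phase were seeded at 250–500 per well in 384-well plates and, after 24 hours, kept in continuous contact with inhibitors at 0.5, 1, 5, 10, 50, 100, 500 and 1000 nM for five days. Surviving fraction was taken from CellTiter-Glo luminescence relative to the median of DMSO-only wells.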

PACLITAXEL [2] = compound: T1, CC(=O)O[C@H]1C(=O)[C@@]2(C)[C@H]([C@H](OC(=O)c3ccccc3)[C@]3(O)C[C@H](OC(=O)[C@H](O)[C@@H](NC(=O)c4ccccc4)c4ccccc4)C(C)=C1C3(C)C)[C@]1(OC(C)=O)CO[C@@H]1C[C@@H]2O [PACLITAXEL]; assay: as above; settings: exposure time: 5 days
How it was run: as §1

[3] = compound: CC(=O)c1c(C)c2cnc(Nc3ccc(N4CCNCC4)cn3)nc2n(C2CCCC2)c1=O; assay: as above; settings: exposure time: 5 days
How it was run: as §1

CAMPTOTHECIN [4] = compound: T2, CC[C@@]1(O)C(=O)OCc2c1cc1n(c2=O)Cc2cc3ccccc3nc2-1 [CAMPTOTHECIN]; assay: as above; settings: exposure time: 5 days
How it was run: as §1

YM155 [5] = compound: T3, COCC[n+]1c2c(n(Cc3cnccn3)c1C)C(=O)c1ccccc1C2=O [YM155]; assay: as above; settings: exposure time: 5 days
How it was run: as §1

GEFITINIB [6] = compound: T4, COc1cc2ncnc(Nc3ccc(F)c(Cl)c3)c2cc1OCCCN1CCOCC1 [GEFITINIB]; assay: as above; settings: exposure time: 5 days
How it was run: as §1

OSI-906 [7] = compound: T5, C[C@]1(O)C[C@@H](c2nc(-c3ccc4ccc(-c5ccccc5)nc4c3)c3c(N)nccn32)C1 [OSI-906]; assay: as above; settings: exposure time: 5 days
How it was run: as §1

CELECOXIB [8] = compound: T6, Cc1ccc(-c2cc(C(F)(F)F)nn2-c2ccc(S(N)(=O)=O)cc2)cc1 [CELECOXIB]; assay: as above; settings: exposure time: 5 days
How it was run: as §1

CARBOPLATIN [9] = compound: T7, O=C(O)C1(C(=O)O)CCC1.[NH2-].[NH2-].[Pt+2] [CARBOPLATIN]; assay: as above; settings: exposure time: 5 days
How it was run: as §1

[10] = compound: CC(=O)NCC(=O)N1[C@@H]2CC[C@H]1c1ccc(Nc3ncc(C(F)(F)F)c(NC4CCC4)n3)cc12; assay: area under dose-response curve of surviving fraction (unscaled, Aref=0) (surviving fraction x log10(nM)); higher = more resistant; settings: exposure time: 5 days; dose range 0.5-1000 nM
How it was run: (§2)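 Tumour cell lines in 384-well plates were exposed for five days to eight inhibitor concentrations from 0.5 to 1000 nM. Viability was read by CellTiter-Glo luminescence, normalised to DMSO-only wells, in three screens per line. Dose-response survival curves were fitted to surviving fractions by 3-parameter logistic regression in the drc R package. Area under the curve is the unscaled activity area (Aref = 0) over log10 dose.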

PACLITAXEL [11] = compound: T1, PACLITAXEL; assay: as above; settings: exposure time: 5 days; dose range 0.5-1000 nM
How it was run: as §2

[12] = compound: CC(=O)c1c(C)c2cnc(Nc3ccc(N4CCNCC4)cn3)nc2n(C2CCCC2)c1=O; assay: as above; settings: exposure time: 5 days; dose range 0.5-1000 nM
How it was run: as §2

CAMPTOTHECIN [13] = compound: T2, CAMPTOTHECIN; assay: as above; settings: exposure time: 5 days; dose range 0.5-1000 nM
How it was run: as §2

YM155 [14] = compound: T3, YM155; assay: as above; settings: exposure time: 5 days; dose range 0.5-1000 nM
How it was run: as §2

GEFITINIB [15] = compound: T4, GEFITINIB; assay: as above; settings: exposure time: 5 days; dose range 0.5-1000 nM
How it was run: as §2

OSI-906 [16] = compound: T5, OSI-906; assay: as above; settings: exposure time: 5 days; dose range 0.5-1000 nM
How it was run: as §2

CELECOXIB [17] = compound: T6, CELECOXIB; assay: as above; settings: exposure time: 5 days; dose range 0.5-1000 nM
How it was run: as §2

CARBOPLATIN [18] = compound: T7, CARBOPLATIN; assay: as above; settings: exposure time: 5 days; dose range 0.5-1000 nM
How it was run: as §2

How did the surviving fraction ([1]; 0.5 nM) turn out when MDAMB231 BREAST was run?
Its surviving fraction is 0.975 ± 0.018.

And the surviving fraction ([1]; 1 nM)?
The surviving fraction was 0.98 ± 0.016.

What about the surviving fraction ([1]; 5 nM) of the same test system?
Its surviving fraction is 0.974 ± 0.011.

And the surviving fraction ([1]; 10 nM)?
The surviving fraction was 0.967 ± 0.015.

And the surviving fraction ([1]; 50 nM)?
Its surviving fraction is 0.706 ± 0.063.

What about the surviving fraction ([1]; 100 nM) of the same test system?
The surviving fraction was 0.571 ± 0.027.

What about the surviving fraction ([1]; 500 nM) of the same test system?
Its surviving fraction is 0.416 ± 0.022.

What about the surviving fraction ([1]; 1000 nM) of the same test system?
The surviving fraction was 0.337 ± 0.018.

What about the surviving fraction (PACLITAXEL [2]; 0.5 nM) of the same test system?
The surviving fraction was 0.706 ± 0.028.

And the surviving fraction (PACLITAXEL [2]; 1 nM)?
The surviving fraction was 0.328 ± 0.039.

What about the surviving fraction (PACLITAXEL [2]; 5 nM) of the same test system?
Its surviving fraction is 0.163 ± 0.0032.

And the surviving fraction (PACLITAXEL [2]; 10 nM)?
Its surviving fraction is 0.125 ± 0.0027.

What about the surviving fraction (PACLITAXEL [2]; 50 nM) of the same test system?
Its surviving fraction is 0.121 ± 0.0031.

And the surviving fraction (PACLITAXEL [2]; 100 nM)?
Its surviving fraction is 0.121 ± 0.0088.

What about the surviving fraction (PACLITAXEL [2]; 500 nM) of the same test system?
Its surviving fraction is 0.0907 ± 0.0055.

And the surviving fraction (PACLITAXEL [2]; 1000 nM)?
The surviving fraction was 0.0993 ± 0.0078.

What about the surviving fraction ([3]; 0.5 nM) of the same test system?
The surviving fraction was 0.994 ± 0.01.

And the surviving fraction ([3]; 1 nM)?
The surviving fraction was 1.03 ± 0.032.

What about the surviving fraction ([3]; 5 nM) of the same test system?
The surviving fraction was 1.03 ± 0.014.

And the surviving fraction ([3]; 10 nM)?
Its surviving fraction is 1.01 ± 0.031.

And the surviving fraction ([3]; 50 nM)?
Its surviving fraction is 1.045 ± 0.0069.

What about the surviving fraction ([3]; 100 nM) of the same test system?
The surviving fraction was 1.02 ± 0.021.

What about the surviving fraction ([3]; 500 nM) of the same test system?
Its surviving fraction is 0.905 ± 0.013.

What about the surviving fraction ([3]; 1000 nM) of the same test system?
The surviving fraction was 0.888 ± 0.023.

What about the surviving fraction (CAMPTOTHECIN [4]; 0.5 nM) of the same test system?
The surviving fraction was 0.887 ± 0.025.

And the surviving fraction (CAMPTOTHECIN [4]; 1 nM)?
The surviving fraction was 0.902 ± 0.028.

And the surviving fraction (CAMPTOTHECIN [4]; 5 nM)?
The surviving fraction was 0.803 ± 0.04.

And the surviving fraction (CAMPTOTHECIN [4]; 10 nM)?
The surviving fraction was 0.603 ± 0.019.

And the surviving fraction (CAMPTOTHECIN [4]; 50 nM)?
The surviving fraction was 0.276 ± 0.0089.

What about the surviving fraction (CAMPTOTHECIN [4]; 100 nM) of the same test system?
The surviving fraction was 0.211 ± 0.007.

And the surviving fraction (CAMPTOTHECIN [4]; 500 nM)?
The surviving fraction was 0.0976 ± 0.004.

What about the surviving fraction (CAMPTOTHECIN [4]; 1000 nM) of the same test system?
The surviving fraction was 0.0968 ± 0.0048.

And the surviving fraction (YM155 [5]; 0.5 nM)?
Its surviving fraction is 0.91 ± 0.0095.

What about the surviving fraction (YM155 [5]; 1 nM) of the same test system?
The surviving fraction was 0.903 ± 0.024.

And the surviving fraction (YM155 [5]; 5 nM)?
Its surviving fraction is 0.112 ± 0.002.

And the surviving fraction (YM155 [5]; 10 nM)?
The surviving fraction was 0.0683 ± 0.0035.

What about the surviving fraction (YM155 [5]; 50 nM) of the same test system?
Its surviving fraction is 0.0386 ± 0.0022.

What about the surviving fraction (YM155 [5]; 100 nM) of the same test system?
The surviving fraction was 0.0352 ± 0.002.

What about the surviving fraction (YM155 [5]; 500 nM) of the same test system?
Its surviving fraction is 0.0302 ± 0.00043.

What about the surviving fraction (YM155 [5]; 1000 nM) of the same test system?
Its surviving fraction is 0.0372 ± 0.0043.

And the surviving fraction (GEFITINIB [6]; 0.5 nM)?
The surviving fraction was 0.989 ± 0.026.

And the surviving fraction (GEFITINIB [6]; 1 nM)?
Its surviving fraction is 0.987 ± 0.026.

And the surviving fraction (GEFITINIB [6]; 5 nM)?
Its surviving fraction is 1.02 ± 0.02.

And the surviving fraction (GEFITINIB [6]; 10 nM)?
The surviving fraction was 1.03 ± 0.024.

What about the surviving fraction (GEFITINIB [6]; 50 nM) of the same test system?
The surviving fraction was 1.06 ± 0.027.

And the surviving fraction (GEFITINIB [6]; 100 nM)?
Its surviving fraction is 1.06 ± 0.037.

What about the surviving fraction (GEFITINIB [6]; 500 nM) of the same test system?
The surviving fraction was 1.06 ± 0.018.

What about the surviving fraction (GEFITINIB [6]; 1000 nM) of the same test system?
The surviving fraction was 1.04 ± 0.037.

What about the surviving fraction (OSI-906 [7]; 0.5 nM) of the same test system?
Its surviving fraction is 0.917 ± 0.034.

What about the surviving fraction (OSI-906 [7]; 1 nM) of the same test system?
The surviving fraction was 0.9167 ± 0.0045.

What about the surviving fraction (OSI-906 [7]; 5 nM) of the same test system?
Its surviving fraction is 0.937 ± 0.021.

And the surviving fraction (OSI-906 [7]; 10 nM)?
Its surviving fraction is 0.918 ± 0.03.

What about the surviving fraction (OSI-906 [7]; 50 nM) of the same test system?
The surviving fraction was 0.957 ± 0.031.

And the surviving fraction (OSI-906 [7]; 100 nM)?
The surviving fraction was 0.947 ± 0.013.

What about the surviving fraction (OSI-906 [7]; 500 nM) of the same test system?
The surviving fraction was 0.922 ± 0.014.

And the surviving fraction (OSI-906 [7]; 1000 nM)?
The surviving fraction was 0.908 ± 0.032.

And the surviving fraction (CELECOXIB [8]; 0.5 nM)?
The surviving fraction was 0.973 ± 0.02.

What about the surviving fraction (CELECOXIB [8]; 1 nM) of the same test system?
The surviving fraction was 1 ± 0.015.

And the surviving fraction (CELECOXIB [8]; 5 nM)?
Its surviving fraction is 0.985 ± 0.018.

And the surviving fraction (CELECOXIB [8]; 10 nM)?
Its surviving fraction is 1 ± 0.015.

And the surviving fraction (CELECOXIB [8]; 50 nM)?
The surviving fraction was 1.01 ± 0.02.

And the surviving fraction (CELECOXIB [8]; 100 nM)?
The surviving fraction was 1.04 ± 0.012.

What about the surviving fraction (CELECOXIB [8]; 500 nM) of the same test system?
The surviving fraction was 1.04 ± 0.03.

And the surviving fraction (CELECOXIB [8]; 1000 nM)?
The surviving fraction was 1.02 ± 0.033.

And the surviving fraction (CARBOPLATIN [9]; 0.5 nM)?
The surviving fraction was 0.997 ± 0.048.

What about the surviving fraction (CARBOPLATIN [9]; 1 nM) of the same test system?
The surviving fraction was 0.988 ± 0.019.

What about the surviving fraction (CARBOPLATIN [9]; 5 nM) of the same test system?
Its surviving fraction is 0.994 ± 0.036.

And the surviving fraction (CARBOPLATIN [9]; 10 nM)?
The surviving fraction was 1 ± 0.027.

What about the surviving fraction (CARBOPLATIN [9]; 50 nM) of the same test system?
Its surviving fraction is 1.01 ± 0.019.

And the surviving fraction (CARBOPLATIN [9]; 100 nM)?
Its surviving fraction is 1.02 ± 0.038.

What about the surviving fraction (CARBOPLATIN [9]; 500 nM) of the same test system?
The surviving fraction was 1.03 ± 0.026.

And the surviving fraction (CARBOPLATIN [9]; 1000 nM)?
Its surviving fraction is 1.02 ± 0.041.

What about the “area under dose-response curve” value [10] of the same test system?
The value was 2.51.

And the “area under dose-response curve” value (PACLITAXEL [11])?
Its value is 0.557.

What about the “area under dose-response curve” value [12] of the same test system?
Its value is 3.24.

And the “area under dose-response curve” value (CAMPTOTHECIN [13])?
The value was 1.62.

What about the “area under dose-response curve” value (YM155 [14]) of the same test system?
The value was 0.671.

What about the “area under dose-response curve” value (GEFITINIB [15]) of the same test system?
Its value is 3.4.

What about the “area under dose-response curve” value (OSI-906 [16]) of the same test system?
Its value is 3.07.

And the “area under dose-response curve” value (CELECOXIB [17])?
The value was 3.3.

What about the “area under dose-response curve” value (CARBOPLATIN [18]) of the same test system?
Its value is 3.32.
